Results from paper PMC10927086, “Effects of structurally distinct human HDAC6 and HDAC6/HDAC8 inhibitors against S. mansoni larval and adult worm stages” (PLOS Neglected Tropical Diseases, 2024).
Several values for one entry are separate records, joined by “and”; a condition that tells them apart may be missing. Equal entries are not always repeated. Where two headings read alike, the source gives them in different places.

What was measured:
[1] = tested on: S. mansoni newly transformed schistosoma (NTS); experiment: ATP-based luminescence (CellTiter-GLO) viability assay on NTS; assay type: cell-based
Experimental: (§1) Fig 3 Schistosome viability assays. Panel A: Representative dose-response curves of the inhibitors on NTS. The y-axis indicates the percentage of viability normalized against DMSO (100%) and gambogic acid 10 μM (0%). […] Panel B: dose-response curve of the inhibitors on adult schistosome worm pairs. DMSO (vehicle) was used as negative control (100% viability), the indicated compounds were assayed at 5 (full triangle) 10 (inverted full triangle), 20 (full square) and 50 μM (full circle). Data are expressed as a % severity score (viability) relative to DMSO. Each point represents the average ± standard deviation of three independent experiments.

[2] = tested on: adult S. mansoni worm pairs; experiment: Viability assay on adult worm pairs (phenotype scoring 0-3); assay type: cell-based, Schistosoma mansoni; conditions: for viability at 20 µM / viability at 50 µM: Schistosoma mansoni
Experimental: For studies on adult worm pairs, mice infected 7–8 weeks previously with double sex cercariae were euthanized with intraperitoneal injections of Tiletamine/Zolazepam ([…]) + Xylazine (100 mg/kg) and adult parasites were harvested by reversed perfusion of the hepatic portal system and mesenteric veins. Adult worms were cultured in DMEM containing phenol red and with 4500 mg/l glucose, 2 mM L-glutamine, 100 U/ml penicillin, 100 μg/ml streptomycin, 1x antibiotic-antimycotic reagent, and 10% heat inactivated FBS. Viability assays on adult worm pairs were based on a phenotyping scoring assessment as previously described. Briefly, five adult pairs were incubated with selected compounds in 3 ml of DMEM complete medium. For each compound, three experiments were performed, and compounds were given to parasites only once without medium addition and/or replacement. DMSO (vehicle)-treated worms were used as control samples. Viability was monitored under a Leica Model MZ12 stereomicroscope for 7 days and viability scores (0–3) were assigned. […] For each sample, the total score was determined by the ratio of the sum of worm scores for the total number of worms.
as §1
Parasites were treated initially at 20 μM and 50 μM; their impact on viability was monitored for 7 days upon treatment. […] Viability of each schistosome was scored from 3 (no effect) to 0 (severe effects) by assigning daily worm phenotype scores (plate attachment, movement, color, gut peristalsis, tegument damage) as previously described (Fig 3B).

[3] = tested on: tubulin of S. mansoni adult worm pairs; experiment: Western blot, tubulin acetylation in adult worm pairs; assay type: cell-based, Schistosoma mansoni; conditions: 48 h and 72 h, partially lethal and sub-lethal doses
Experimental: Ten adult pairs were treated with selected HDAC inhibitors for 48 h or 72 h at partially lethal and sublethal concentrations. Compound concentrations were selected based on the viability curve, Trichostatin A (TSA), a pan-HDAC inhibitor, and NF2503 a SmHDAC8 inhibitor chemically characterized by the presence of a hydroxamate-based MBG (metal binding group) coupled to a tricyclic thieno[3,2-b]indole core as capping group, previously described were used as positive controls in the experiments; DMSO (vehicle) was the negative control. Parasites were processed as previously described and samples were analyzed by 15% SDS-PAGE, and immunoblotting was performed using α-tubulin DM1A (1:5000), α-acetylated-lysine (1:4000) and α-acetylated tubulin (1:3000) antibodies. A Chemidoc XRS Bio-Rad with a chemiluminescent camera and Bio-Rad ImageLab 4.0 software were used for the acquisition and analysis of images. Each Western blot analysis was calibrated by Ponceau staining.
TSA, a known pan- class I and class II HDAC -inhibitor, and NF2503, a HDAC inhibitor previously shown to impact histone acetylation in adult worm pairs were used as positive controls.
Fig 6 Effects of selected compounds on histones and tubulin acetylation. […]

hHDAC1 = conditions: recombinant enzyme, previously reported; ref [25]; cited from earlier work
hHDAC6 = conditions: recombinant enzyme, previously reported; ref [25]; cited from earlier work
hHDAC8 = conditions: recombinant enzyme, previously reported; ref [25]; cited from earlier work
[4] = parameters: method as in earlier work; conditions: QikProp, ref [25], cited from earlier work; for %HOA predicted human oral absorption: 0 to 100% scale, >80% high; for QPlogS predicted aqueous solubility: log value, recommended -6.5-0.5; for SASA predicted total solvent accessible surface: recommended 300-1000, in Å2 (unit assumed); for QPlogP predicted octanol/water partition coefficient: recommended -2-6.5
MDCK cell = tested on: MDCK cell; parameters: method as in earlier work; conditions: QikProp; >500 great; ref [25]; cited from earlier work
HERG K+ channels = tested on: HERG K+ channels; parameters: method as in earlier work; conditions: QikProp, log value; recommended below -5; ref [25]; cited from earlier work
[5] = 24 h, 20 µM, day 1, read-out: % viability of adult worm pairs relative to DMSO, Mean
[6] = 24 h, 20 µM, day 1, read-out: % viability of adult worm pairs relative to DMSO, single experiments
[7] = 24 h, 50 µM, day 1, read-out: % viability of adult worm pairs relative to DMSO, Mean
[8] = 72 h, 20 µM, day 3, read-out: % viability of adult worm pairs relative to DMSO, Mean
[9] = 72 h, 20 µM, day 3, read-out: % viability of adult worm pairs relative to DMSO, single experiments
[10] = 72 h, 50 µM, day 3, read-out: % viability of adult worm pairs relative to DMSO, Mean
[11] = 120 h, 20 µM, day 5, read-out: % viability of adult worm pairs relative to DMSO, Mean
[12] = 120 h, 20 µM, day 5, read-out: % viability of adult worm pairs relative to DMSO, single experiments
[13] = 120 h, 50 µM, day 5, read-out: % viability of adult worm pairs relative to DMSO, Mean
[14] = 168 h, 20 µM, day 7, read-out: % viability of adult worm pairs relative to DMSO, Mean
[15] = 168 h, 20 µM, day 7, read-out: % viability of adult worm pairs relative to DMSO, single experiments
[16] = 168 h, 50 µM, day 7, read-out: % viability of adult worm pairs relative to DMSO, Mean

SMILES	% viability of adult worm pairs relative to DMSO, single experiments ([2]; 20 µM, day 1, 20 µM)	% viability of adult worm pairs relative to DMSO, single experiments ([2]; 20 µM, day 3, 20 µM)	% viability of adult worm pairs relative to DMSO, single experiments ([2]; 20 µM, day 5, 20 µM)	% viability of adult worm pairs relative to DMSO, single experiments ([2]; 20 µM, day 7, 20 µM)	% viability of adult worm pairs relative to DMSO, single experiments ([2]; 50 µM, day 3, 50 µM)	viability at 20 µM [2, 5] [%]	viability at 20 µM [2, 6] [%]	viability at 50 µM [2, 7] [%]	viability at 20 µM [2, 8] [%]	viability at 20 µM [2, 9] [%]	viability at 50 µM [2, 10] [%]	viability at 20 µM [2, 11] [%]	viability at 20 µM [2, 12] [%]	viability at 50 µM [2, 13] [%]	viability at 20 µM [2, 14] [%]	viability at 20 µM [2, 15] [%]	viability at 50 µM [2, 16] [%]	tubulin acetylation vs vehicle (DMSO) [3]	IC50 (hHDAC1) [µM]	IC50 (hHDAC6) [µM]	further results
CCN(CC)Cc1ccc(Cn2c(=O)c(OCc3ccc(C(=O)NO)cc3)c(-c3cccnc3)c3ccccc32)cc1 [NF2838]	93.3% and 96%	86.6% and 96%	90% and 100%	85% and 100%	67% and 70%	96.4	100	67.5	94.2	100	58.5	96.7	100	50	95	100	58.5	increased acetylation	0.3 ± 0.1	0.0115 ± 0.0015	Normalization: NTS viability normalized against DMSO (100%) and GA (0%) ([1]; log conc. (µM) 1.4, 72 h, single wells): 107.9%; % viability of adult worm pairs relative to DMSO, single experiments ([2]; 50 µM, day 1, 50 µM): 62% and 73%; % viability of adult worm pairs relative to DMSO, single experiments ([2]; 50 µM, day 7, 50 µM): 67%; viability at 50 µM ([2]; 72 h, 50 µM, day 3, read-out: % viability of adult worm pairs relative to DMSO, single experiments): 50%; viability at 50 µM ([2]; 168 h, 50 µM, day 7, read-out: % viability of adult worm pairs relative to DMSO, single experiments): 50%; IC50 (hHDAC8): 0.5 ± 0.2 µM; %HOA predicted human oral absorption [4]: 64.57%; QPlogS predicted aqueous solubility [4]: -4.58 mol/dm^3; SASA predicted total solvent accessible surface [4]: 849.77; QPlogP predicted octanol/water partition coefficient [4]: 3.29; QPPMDCK predicted apparent MDCK cell permeability (MDCK cell): 2.431 ×10⁻⁶ cm/s; QPlogHERG predicted IC50 values for blockage of HERG K+ channels (HERG K+ channels): -7.83
Cn1c(=O)c(OCc2ccc(C(=O)NO)cc2)c(C2CCCCC2)c2ccccc21 [NF2836]	100%	100% and 96%	100% and 96%	100%	80% and 60% and 92.59% and 77%	94.3	83	62.1	98.7	100	77.4	98.7	100	53.9	94.3	100	53.2	highest increase in tubulin acetylation	3 ± 0.2	0.033 ± 0.0026	LD50 on NTS, average +/- SD ([1]; 72 h, 0.7-100 μM, three experiments): 31.2 ± 11.3 µM; % viability of adult worm pairs relative to DMSO, single experiments ([2]; 50 µM, day 5, 50 µM): 63% and 43% and 42.59% and 67%; IC50 (hHDAC8): 1.6 ± 0.3 µM; %HOA predicted human oral absorption [4]: 87.94%; QPlogS predicted aqueous solubility [4]: -5.04 mol/dm^3; SASA predicted total solvent accessible surface [4]: 684.14; QPlogP predicted octanol/water partition coefficient [4]: 3.01; QPPMDCK predicted apparent MDCK cell permeability (MDCK cell): 11.753 ×10⁻⁶ cm/s; QPlogHERG predicted IC50 values for blockage of HERG K+ channels (HERG K+ channels): -5.45
